Experimental data taken from patent publication US9776995B2, “Bicyclic sulfonamide compounds as sodium channel inhibitors” (AMGEN INC., priority 2013, dated 2017).
Read-outs that look alike come from different tables or passages of the source. One block for each compound: values may come before it.

Assays:
Nav 1.7 = Nav 1.7 (Homo sapiens (Human), UniProt Q15858); assay: in-vitro Nav 1.7 PX data; format: cell-based
Nav 1.5 = Nav 1.5 (Homo sapiens (Human), UniProt Q14524); assay: in-vitro Nav 1.5 PX data; conditions: read-out: Nav 1.5 PX IC50
Nav 1.5, sequence (Q14524 whole entry): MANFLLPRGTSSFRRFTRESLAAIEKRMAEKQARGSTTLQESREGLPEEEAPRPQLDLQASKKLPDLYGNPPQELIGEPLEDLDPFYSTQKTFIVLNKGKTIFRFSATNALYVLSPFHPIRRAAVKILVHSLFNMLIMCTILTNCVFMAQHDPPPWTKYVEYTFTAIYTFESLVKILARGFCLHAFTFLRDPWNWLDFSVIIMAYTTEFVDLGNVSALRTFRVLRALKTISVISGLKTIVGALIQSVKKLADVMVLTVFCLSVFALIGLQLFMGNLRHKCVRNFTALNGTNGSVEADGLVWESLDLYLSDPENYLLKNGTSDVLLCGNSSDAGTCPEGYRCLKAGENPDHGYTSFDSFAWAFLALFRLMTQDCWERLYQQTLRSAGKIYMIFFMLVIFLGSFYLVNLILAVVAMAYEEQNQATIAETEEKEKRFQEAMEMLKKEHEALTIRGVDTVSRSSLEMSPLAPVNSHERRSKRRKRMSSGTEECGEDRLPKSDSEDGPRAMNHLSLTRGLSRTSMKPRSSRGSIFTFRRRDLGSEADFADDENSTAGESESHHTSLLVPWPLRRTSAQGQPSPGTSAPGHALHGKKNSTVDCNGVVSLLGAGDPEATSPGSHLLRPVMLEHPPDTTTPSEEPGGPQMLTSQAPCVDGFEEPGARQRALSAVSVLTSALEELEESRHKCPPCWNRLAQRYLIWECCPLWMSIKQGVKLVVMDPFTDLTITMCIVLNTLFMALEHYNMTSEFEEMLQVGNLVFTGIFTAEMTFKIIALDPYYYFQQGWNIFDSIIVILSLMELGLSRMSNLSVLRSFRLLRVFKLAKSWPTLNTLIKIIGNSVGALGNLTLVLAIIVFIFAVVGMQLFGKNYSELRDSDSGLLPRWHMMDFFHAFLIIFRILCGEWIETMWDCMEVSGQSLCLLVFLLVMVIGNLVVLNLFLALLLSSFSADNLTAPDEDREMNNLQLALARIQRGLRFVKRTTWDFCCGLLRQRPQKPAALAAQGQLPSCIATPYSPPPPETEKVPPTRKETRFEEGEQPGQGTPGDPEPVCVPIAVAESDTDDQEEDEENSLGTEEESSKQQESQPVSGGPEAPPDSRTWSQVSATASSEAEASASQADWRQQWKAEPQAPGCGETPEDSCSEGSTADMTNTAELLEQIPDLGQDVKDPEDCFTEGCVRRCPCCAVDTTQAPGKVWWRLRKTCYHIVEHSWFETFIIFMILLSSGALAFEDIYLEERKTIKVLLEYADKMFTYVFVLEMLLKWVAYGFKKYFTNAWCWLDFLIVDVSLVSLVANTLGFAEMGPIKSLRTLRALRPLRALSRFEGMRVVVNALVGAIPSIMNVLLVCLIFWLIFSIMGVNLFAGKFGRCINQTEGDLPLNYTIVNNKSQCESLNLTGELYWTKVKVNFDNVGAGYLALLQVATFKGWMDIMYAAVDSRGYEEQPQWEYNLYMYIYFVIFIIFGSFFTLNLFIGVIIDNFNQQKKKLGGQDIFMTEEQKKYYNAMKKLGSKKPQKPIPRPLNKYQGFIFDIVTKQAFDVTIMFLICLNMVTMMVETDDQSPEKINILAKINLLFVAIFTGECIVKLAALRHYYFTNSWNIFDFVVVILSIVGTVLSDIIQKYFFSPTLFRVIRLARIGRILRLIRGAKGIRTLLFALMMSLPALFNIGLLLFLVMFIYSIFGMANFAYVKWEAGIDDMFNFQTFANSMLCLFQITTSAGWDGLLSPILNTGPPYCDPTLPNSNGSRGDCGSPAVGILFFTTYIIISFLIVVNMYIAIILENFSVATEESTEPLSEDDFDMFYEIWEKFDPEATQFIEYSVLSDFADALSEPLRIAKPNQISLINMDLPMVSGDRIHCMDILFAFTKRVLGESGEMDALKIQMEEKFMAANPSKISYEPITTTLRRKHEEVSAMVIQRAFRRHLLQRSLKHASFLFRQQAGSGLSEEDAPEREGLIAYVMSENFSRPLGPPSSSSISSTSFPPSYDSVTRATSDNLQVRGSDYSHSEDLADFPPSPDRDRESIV

Nav 1.7, sequence (Q15858 whole entry): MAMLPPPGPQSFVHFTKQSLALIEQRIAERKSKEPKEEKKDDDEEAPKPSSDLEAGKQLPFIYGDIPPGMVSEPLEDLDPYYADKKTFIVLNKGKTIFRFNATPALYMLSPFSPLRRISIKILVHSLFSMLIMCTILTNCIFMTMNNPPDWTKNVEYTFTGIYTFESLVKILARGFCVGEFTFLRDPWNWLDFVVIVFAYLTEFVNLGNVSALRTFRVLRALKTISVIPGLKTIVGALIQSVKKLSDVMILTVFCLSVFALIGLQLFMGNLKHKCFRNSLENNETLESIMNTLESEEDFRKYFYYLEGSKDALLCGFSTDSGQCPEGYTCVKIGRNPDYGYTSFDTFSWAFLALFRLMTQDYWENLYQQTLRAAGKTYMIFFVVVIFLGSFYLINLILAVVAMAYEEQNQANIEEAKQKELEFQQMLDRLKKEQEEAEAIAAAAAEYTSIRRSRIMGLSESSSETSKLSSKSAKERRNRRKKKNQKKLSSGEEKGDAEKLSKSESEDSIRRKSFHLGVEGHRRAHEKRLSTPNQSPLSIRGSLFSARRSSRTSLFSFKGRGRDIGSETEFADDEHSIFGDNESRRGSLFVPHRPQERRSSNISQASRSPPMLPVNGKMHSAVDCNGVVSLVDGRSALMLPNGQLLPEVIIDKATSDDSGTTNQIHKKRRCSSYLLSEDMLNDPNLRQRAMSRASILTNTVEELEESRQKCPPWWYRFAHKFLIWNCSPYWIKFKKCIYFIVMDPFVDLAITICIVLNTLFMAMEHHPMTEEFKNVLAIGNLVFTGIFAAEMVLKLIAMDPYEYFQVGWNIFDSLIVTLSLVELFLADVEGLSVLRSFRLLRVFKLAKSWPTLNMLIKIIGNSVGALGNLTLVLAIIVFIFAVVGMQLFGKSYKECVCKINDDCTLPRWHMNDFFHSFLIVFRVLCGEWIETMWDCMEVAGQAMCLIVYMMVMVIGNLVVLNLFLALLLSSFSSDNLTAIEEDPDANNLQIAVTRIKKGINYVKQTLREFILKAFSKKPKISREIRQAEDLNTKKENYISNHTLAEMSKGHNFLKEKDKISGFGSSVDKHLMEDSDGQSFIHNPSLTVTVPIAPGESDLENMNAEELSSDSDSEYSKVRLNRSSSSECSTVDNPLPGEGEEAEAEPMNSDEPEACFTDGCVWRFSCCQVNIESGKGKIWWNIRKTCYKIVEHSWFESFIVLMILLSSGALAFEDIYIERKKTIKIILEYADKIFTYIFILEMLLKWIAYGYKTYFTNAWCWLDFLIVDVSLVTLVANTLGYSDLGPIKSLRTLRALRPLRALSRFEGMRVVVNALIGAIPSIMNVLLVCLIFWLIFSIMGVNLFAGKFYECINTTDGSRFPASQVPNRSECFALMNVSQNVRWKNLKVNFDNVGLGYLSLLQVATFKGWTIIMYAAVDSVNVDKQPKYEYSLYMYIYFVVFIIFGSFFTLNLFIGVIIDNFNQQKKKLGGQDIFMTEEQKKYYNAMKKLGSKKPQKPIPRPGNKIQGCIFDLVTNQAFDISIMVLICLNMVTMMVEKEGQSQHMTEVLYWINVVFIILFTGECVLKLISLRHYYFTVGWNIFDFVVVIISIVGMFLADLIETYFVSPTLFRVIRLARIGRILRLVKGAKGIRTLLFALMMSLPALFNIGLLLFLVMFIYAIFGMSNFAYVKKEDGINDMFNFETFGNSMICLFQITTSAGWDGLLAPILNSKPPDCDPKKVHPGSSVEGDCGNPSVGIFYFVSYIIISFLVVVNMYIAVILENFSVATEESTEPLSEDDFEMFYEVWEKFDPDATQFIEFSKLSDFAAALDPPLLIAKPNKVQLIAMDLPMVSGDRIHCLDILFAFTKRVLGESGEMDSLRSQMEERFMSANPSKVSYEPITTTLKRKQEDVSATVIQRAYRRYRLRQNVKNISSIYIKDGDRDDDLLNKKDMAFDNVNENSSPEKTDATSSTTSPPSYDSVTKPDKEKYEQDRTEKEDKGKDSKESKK

IC50 (Nav 1.7; in-vitro PX data): 62.5 nM
Compound: COc1cc(-c2ccc(F)cc2)c(C#N)cc1-c1nccc2cc(S(=O)(=O)Nc3ccon3)ccc12 [Example 106, 1-(2-cyano-4′-fluoro-5-methoxy-4-biphenylyl)-N-3-isoxazolyl-6-isoquinolinesulfonamide]
IC50 (Nav 1.5; in-vitro PX data): > 10000 nM

IC50 (Nav 1.7; in-vitro PX data): 91.7 nM
Compound: COc1cc(Cl)c(-c2cccc(F)c2)cc1-c1nccc2cc(S(=O)(=O)Nc3ccon3)ccc12 [Example 121, 1-(6-chloro-3′-fluoro-4-methoxy-3-biphenylyl)-N-3-isoxazolyl-6-isoquinolinesulfonamide]
IC50 (Nav 1.5; in-vitro PX data): > 10000 nM

IC50 (Nav 1.7; in-vitro PX): 82.3 nM
Compound: COc1cc(-c2cccc(F)c2)c(Cl)cc1-c1nn(C)c(=O)c2cc(S(=O)(=O)Nc3nncs3)ccc12 [Example 215, 1-(2-chloro-3′-fluoro-5-methoxy-4-biphenylyl)-3-methyl-4-oxo-N-1,3,4-thiadiazol-2-yl-3,4-dihydro-6-phthalazinesulfonamide]
IC50 (Nav 1.5; in-vitro PX): > 10000 nM

IC50 (Nav 1.7; in-vitro PX): 115 nM
Compound: COc1cc(-c2cccc(F)c2)c(Cl)cc1-c1ccnc2cc(S(=O)(=O)Nc3ccon3)ccc12 [Example 239, 4-(2-chloro-3′-fluoro-5-methoxy-4-biphenylyl)-N-3-isoxazolyl-7-quinolinesulfonamide]
IC50 (Nav 1.5; in-vitro PX): 11200 nM

IC50 (Nav 1.7; in-vitro PX): 85.1 nM
Compound: COc1cc(-c2cccc(F)c2)c(Cl)cc1-c1ncc(O)c2cc(S(=O)(=O)Nc3ccon3)ccc12 [Example 17, 1-(2-CHLORO-3′-FLUORO-5-METHOXY-[1,1′-BIPHENYL]-4-YL)-4-HYDROXY-N-(ISOXAZOL-3-YL)ISOQUINOLINE-6-SULFONAMIDE]
IC50 (Nav 1.5; in-vitro PX): > 10000 nM

Further lines, the compound ahead of its results:

Compound: N#CCOc1cc(-c2cccc(F)c2)ccc1-c1nccc2cc(S(=O)(=O)Nc3ccncn3)ccc12 [Example 208, 1-(3-(cyanomethoxy)-3′-fluoro-4-biphenylyl)-N-4-pyrimidinyl-6-isoquinolinesulfonamide]
IC50 (Nav 1.7; in-vitro PX): 230 nM | IC50 (Nav 1.5; in-vitro PX): > 30000 nM

Compound: COc1cc(-c2ccc(C)c(Cl)c2)c(C#N)cc1-c1nccc2cc(S(=O)(=O)Nc3ccncn3)ccc12 [Example 159, 1-(3′-chloro-2-cyano-5-methoxy-4′-methyl-4-biphenylyl)-N-4-pyrimidinyl-6-isoquinolinesulfonamide]
IC50 (Nav 1.7; in-vitro Nav 1.7 PX data): 38.7 nM | IC50 (Nav 1.5; in-vitro Nav 1.5 PX data): > 30000 nM

Compound: COc1cc(Oc2ccc(C)c(F)c2)ccc1-c1nccc2cc(S(=O)(=O)Nc3ccncn3)ccc12 [Example 177, 1-(4-(3-fluoro-4-methylphenoxy)-2-methoxyphenyl)-N-4-pyrimidinyl-6-isoquinolinesulfonamide]
IC50 (Nav 1.7; in-vitro PX (PatchXpress) data): 99.3 nM | IC50 (Nav 1.5; in-vitro PX (PatchXpress) data): > 10000 nM

Compound: 1-(3′-chloro-2-cyano-5-methoxy-5′-methyl-4-biphenylyl)-N-1,3,4-thiadiazol-2-yl-6-isoquinolinesulfonamide [Example 225]
IC50 (Nav 1.7; in-vitro PX): 11.1 nM | IC50 (Nav 1.5; in-vitro PX): > 10000 nM

Compound: COc1cc(Oc2cc(C)cc(C)c2)ccc1-c1nccc2cc(S(=O)(=O)Nc3ccncn3)ccc12 [Example 180, 1-(4-(3,5-dimethylphenoxy)-2-methoxyphenyl)-N-4-pyrimidinyl-6-isoquinolinesulfonamide]
IC50 (Nav 1.7; in-vitro PX (PatchXpress) data): 520 nM | IC50 (Nav 1.5; in-vitro PX (PatchXpress) data): > 10000 nM

Compound: COc1cc(Oc2ccc(F)c(F)c2)ccc1-c1nccc2cc(S(=O)(=O)Nc3ccncn3)ccc12 [Example 175, 1-(4-(3,4-difluorophenoxy)-2-methoxyphenyl)-N-4-pyrimidinyl-6-isoquinolinesulfonamide]
IC50 (Nav 1.7; in-vitro PX (PatchXpress) data): 197 nM | IC50 (Nav 1.5; in-vitro PX (PatchXpress) data): > 10000 nM

Compound: COc1nc(OCC2CCCCC2)ccc1-c1nccc2cc(S(=O)(=O)Nc3ccncn3)ccc12 [Example 66, 1-(6-(cyclohexylmethoxy)-2-methoxy-3-pyridinyl)-N-4-pyrimidinyl-6-isoquinolinesulfonamide]
IC50 (Nav 1.7; PatchXpress (PX), in vitro): 349 nM | IC50 (Nav 1.5; PatchXpress (PX), in vitro): > 10000 nM

Compound: Cc1ccc(OCc2ccccc2)cc1-c1nccc2cc(S(=O)(=O)Nc3ccncn3)ccc12 [Example 151, 1-(5-(benzyloxy)-2-methylphenyl)-N-4-pyrimidinyl-6-isoquinolinesulfonamide]
IC50 (Nav 1.7; in-vitro Nav 1.7 PX data): 424 nM | IC50 (Nav 1.5; in-vitro Nav 1.5 PX data): > 30000 nM
